In US9776972B2, “Pyrazole derivatives as arginine methyltransferase inhibitors and uses thereof” (priority 2013, dated 2017):
pIC50: −log10 of the molar value.

Target: human PRMT8 (Homo sapiens, UniProt Q9NR22)
Test: PRMT8 Biochemical Assay (3H-SAM Flashplate, peptide substrate)
Settings: single experiment or average of multiple experiments
In short: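 Methylation of a biotin-tagged histone H4 peptide (residues 31-45) by recombinant PRMT8 was measured as 3H transfer from 3H-SAM, after a 30 min room-temperature compound preincubation in Bicine buffer pH 7.6. Reactions were quenched with unlabelled SAM to 400 uM final, then bound counts were read by streptavidin Flashplate. IC50 came from a Hill fit of % inhibition relative to max and SAH min controls.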

Sequence of human PRMT8 (Q9NR22 whole entry): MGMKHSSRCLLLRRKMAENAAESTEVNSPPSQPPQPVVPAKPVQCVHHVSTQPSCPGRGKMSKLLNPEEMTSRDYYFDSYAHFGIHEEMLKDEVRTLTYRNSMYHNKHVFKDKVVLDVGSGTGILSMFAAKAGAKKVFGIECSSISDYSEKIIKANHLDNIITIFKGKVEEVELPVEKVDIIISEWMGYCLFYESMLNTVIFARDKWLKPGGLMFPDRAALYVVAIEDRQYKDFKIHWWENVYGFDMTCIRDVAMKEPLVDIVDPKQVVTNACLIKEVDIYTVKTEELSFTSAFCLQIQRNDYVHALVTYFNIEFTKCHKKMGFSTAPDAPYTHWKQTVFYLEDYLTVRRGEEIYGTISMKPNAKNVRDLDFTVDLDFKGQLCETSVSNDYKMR

CNCCN(C)Cc1c[nH]nc1-c1ccc(F)cc1 [Compound 2, N^1-((3-(4-fluorophenyl)-1H-pyrazol-4-yl)methyl)-N^1,N^2-dimethylethane-1,2-diamine]
pIC50: 6.29

CCCc1ccc(-c2n[nH]cc2CN(C)CCNC)cc1 [Compound 20]
pIC50: 7.24

CNCCN(C)Cc1c[nH]nc1-c1cccc([N+](=O)[O-])c1 [Compound 21]
pIC50: 6.28

CNCCN(C)Cc1c[nH]nc1-c1cccc(C#N)c1 [Compound 22]
pIC50: 5.65

CNCCN(C)Cc1c[nH]nc1-c1ccccc1OC [Compound 23]
pIC50: 5.48

CNCCN(C)Cc1c[nH]nc1-c1cccc(OC)c1 [Compound 24]
pIC50: 6.05

CNCCN(C)Cc1c[nH]nc1-c1ccc(OC)cc1 [Compound 25]
pIC50: 6.26

CNCCN(C)Cc1c[nH]nc1-c1cccc(O)c1 [Compound 26]
pIC50: 5.82

CNCCN(C)Cc1c[nH]nc1-c1ccc(O)cc1 [Compound 27]
pIC50: 6.15

CNCCN(C)Cc1c[nH]nc1-c1ccc(CO)cc1 [Compound 28]
pIC50: 7.02

CNCCN(C)Cc1c[nH]nc1-c1ccc(C)cc1C [Compound 29]
pIC50: 5.64

CNCCN(C)Cc1cn(CCCC(O)CO)nc1-c1ccc(F)cc1 (stereo not drawn) [Compound 30]
pIC50: < 4.30

CNCCN(C)Cc1cnn(CCCC(O)CO)c1-c1ccc(F)cc1 (stereo not drawn) [Compound 31]
pIC50: 5.20

CNCCN(C)Cc1c[nH]nc1-c1ccc(N)cc1 [Compound 33]
pIC50: 5.84

CNCCN(C)Cc1c[nH]nc1-c1ccc(Oc2ccccc2)cc1 [Compound 37]
pIC50: 7.24

CNCCN(C)Cc1c[nH]nc1-c1ccccc1C(F)(F)F [Compound 38]
pIC50: 5.00

CCNC(=O)c1cccc(-c2n[nH]cc2CN(C)CCNC)c1 [Compound 43]
pIC50: 5.65

CNCCN(C)Cc1c[nH]nc1-c1ccc(C(=O)c2ccccc2)cc1 [Compound 45]
pIC50: 6.51

CNCCN(C)Cc1c[nH]nc1-c1ccccc1-c1ccccc1 [Compound 46]
pIC50: 4.92

CNCCN(C)Cc1c[nH]nc1-c1ccc(F)cc1F [Compound 49]
pIC50: 6.13

CNCCN(C)Cc1c[nH]nc1-c1cc(F)ccc1F [Compound 50]
pIC50: 5.78

CNCCN(C)Cc1c[nH]nc1-c1ccc(F)c(F)c1 [Compound 51]
pIC50: 6.73

CNCCN(C)Cc1c[nH]nc1-c1ccc(OC)c(F)c1 [Compound 52]
pIC50: 6.66

CNCCN(C)Cc1c[nH]nc1-c1ccc(OC)cc1OC [Compound 55]
pIC50: 5.50

CNCCN(C)Cc1c[nH]nc1-c1c(OC)cccc1OC [Compound 56]
pIC50: 4.46

CNCCN(C)Cc1c[nH]nc1-c1cccc2ccccc12 [Compound 57]
pIC50: 6.71

CNCCN(C)Cc1c[nH]nc1-c1ccc2ccccc2c1 [Compound 58]
pIC50: 6.77

CNCCN(C)Cc1cn(CCC(O)CO)nc1-c1ccc(F)cc1 (stereo not drawn) [Compound 59]
pIC50: 5.05

CCN(CCN)Cc1c[nH]nc1-c1ccc(F)cc1 [Compound 62]
pIC50: 6.44

CCCN(CCN)Cc1c[nH]nc1-c1ccc(F)cc1 [Compound 63]
pIC50: 5.10

CN(CCN)Cc1cnn(CCO)c1-c1ccc(F)cc1 [Compound 65]
pIC50: 5.06

CN(CCN)Cc1cn(CCO)nc1-c1ccc(F)cc1 [Compound 66]
pIC50: 5.06

CN(CCN)Cc1c[nH]nc1-c1ccc(C#N)cc1 [Compound 68]
pIC50: 6.39

CNCCN(C)Cc1cnn(CC(=O)OC)c1-c1ccc(OC(C)C)cc1 [Compound 249]
pIC50: 5.82

CNCCN(C)Cc1cn(CC(=O)O)nc1-c1ccc(OC(C)C)cc1 [Compound 250]
pIC50: 5.60

CNCCN(C)Cc1cn(C2CCCCC2)nc1-c1ccc(OC(C)C)cc1 [Compound 256]
pIC50: 5.58
